Where “and” joins values, the source holds several entries; their conditions need not be identical. Equal values may be shown once. Toxic doses and inconclusive results are not listed. No stated cut-off is given here; in the data, active means T/C of 150% or more; inactive means T/C below 125%.
System: L1210 leukemia ip in BDF1 mice, survival T/C
Test: NCI In Vivo Anticancer Drug Screen. Data for tumor model L1210 Leukemia (intraperitoneal) in B6D2F1 (BDF1) mice
Conditions: endpoint: mean survival time, higher = longer survival
Procedure, shortened: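 Tumor cells were implanted, animals were treated, and survival was followed. The result divides the treated measurement by the vehicle-control measurement.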

[1] = dose: 100.0 mg/kg/injection, schedule: Q01DX001 (ip), vehicle: saline
[2] = dose: 200.0 mg/kg/injection, schedule: Q01DX001 (ip), vehicle: saline
[3] = dose: 400.0 mg/kg/injection, schedule: Q01DX001 (ip), vehicle: saline
[4] = dose: 100.0 mg/kg/injection, schedule: Q01DX009 (ip), vehicle: Klucel (hydroxypropylcellulose) (HPC)
[5] = dose: 100.0 mg/kg/injection, schedule: Q04DX003 (ip), vehicle: Klucel (hydroxypropylcellulose) (HPC)
[6] = dose: 200.0 mg/kg/injection, schedule: Q01DX009 (ip), vehicle: Klucel (hydroxypropylcellulose) (HPC)
[7] = dose: 200.0 mg/kg/injection, schedule: Q04DX003 (ip), vehicle: Klucel (hydroxypropylcellulose) (HPC)
[8] = dose: 400.0 mg/kg/injection, schedule: Q04DX003 (ip), vehicle: Klucel (hydroxypropylcellulose) (HPC)
[9] = dose: 12.5 mg/kg/injection, schedule: Q04DX002 (ip), vehicle: saline with Tween-80
[10] = dose: 100.0 mg/kg/injection, schedule: Q01DX009 (ip), vehicle: saline with Tween-80
[11] = dose: 200.0 mg/kg/injection, schedule: Q01DX009 (ip), vehicle: saline with Tween-80
[12] = dose: 400.0 mg/kg/injection, schedule: Q01DX009 (ip), vehicle: saline with Tween-80
[13] = dose: 400.0 mg/kg/injection, schedule: Q01DX009 (ip), vehicle: Klucel (hydroxypropylcellulose) (HPC)
[14] = dose: 25.0 mg/kg/injection, schedule: Q01DX009 (ip), vehicle: saline with Tween-80
[15] = dose: 50.0 mg/kg/injection, schedule: Q01DX009 (ip), vehicle: saline with Tween-80
[16] = dose: 25.0 mg/kg/injection, schedule: Q04DX003 (ip), vehicle: saline with Tween-80
[17] = dose: 50.0 mg/kg/injection, schedule: Q04DX003 (ip), vehicle: saline with Tween-80
[18] = dose: 12.5 mg/kg/injection, schedule: Q04DX003 (ip), vehicle: saline with Tween-80
[19] = dose: 12.0 mg/kg/injection, schedule: Q01DX009 (ip), vehicle: saline with Tween-80

Measured: T/C

O=C1/C(=C/c2ccccn2)CCc2cc(Cl)ccc21
inactive: dose: 100.0 mg/kg/injection, schedule: Q04DX003 (ip), vehicle: carboxymethylcellulose (CMC) 93 % of control | dose: 200.0 mg/kg/injection, schedule: Q04DX003 (ip), vehicle: carboxymethylcellulose (CMC) 96 % of control | dose: 400.0 mg/kg/injection, schedule: Q04DX003 (ip), vehicle: carboxymethylcellulose (CMC) 96 % of control

COc1ccc(/C=N\NC(=O)CCCC(=O)N/N=C/c2ccc(OC)c(O)c2)cc1O
inactive: dose: 50.0 mg/kg/injection, schedule: Q01DX001 (ip), vehicle: saline 100 % of control | [1] 100 % of control | [2] 100 % of control | [3] 103 % of control

Cc1ccccc1-n1c(C)nc2ccccc2c1=O
inactive: dose: 75.0 mg/kg/injection, schedule: Q01DX001 (ip), vehicle: saline 102 % of control | dose: 100.0 mg/kg/injection, schedule: Q01DX001 (ip), vehicle: other 94 % of control | [4] 97 % of control | [5] 101 % of control | dose: 150.0 mg/kg/injection, schedule: Q01DX001 (ip), vehicle: saline 106 % of control | dose: 200.0 mg/kg/injection, schedule: Q01DX001 (ip), vehicle: other 100 % of control | [6] 105 % of control | [7] 105 % of control | dose: 300.0 mg/kg/injection, schedule: Q01DX001 (ip), vehicle: saline 107 % of control | dose: 400.0 mg/kg/injection, schedule: Q01DX001 (ip), vehicle: other 96 % of control | [8] 111 % of control

O=C(O)CCCCCN1C(=O)C2CC=CCC2C1=O (configuration not stated)
inactive: dose: 6.0 mg/kg/injection, schedule: Q04DX002 (ip), vehicle: saline with Tween-80 106 % of control | [9] 91 % of control | dose: 25.0 mg/kg/injection, schedule: Q04DX002 (ip), vehicle: saline with Tween-80 98 % of control | dose: 50.0 mg/kg/injection, schedule: Q04DX002 (ip), vehicle: saline with Tween-80 102 % of control

CCCc1c(CC)c(Cl)nc2ccccc12
inactive: [1] 105 % of control | [2] 103 % of control | [3] 91 % of control

O=C(Nc1ccc(Cl)cc1C(F)(F)F)Oc1ccc(OCc2ccccc2)cc1
inactive: [10] 94 % of control | [11] 100 % of control | [12] 92 % of control

O=[N+]([O-])c1ccc(SC2=NCCCN2)c([N+](=O)[O-])c1
inactive: dose: 12.5 mg/kg/injection, schedule: Q04DX002 (ip), vehicle: Klucel (hydroxypropylcellulose) (HPC) 106 % of control | dose: 25.0 mg/kg/injection, schedule: Q04DX002 (ip), vehicle: Klucel (hydroxypropylcellulose) (HPC) 95 % of control

CCC(=O)c1ccc(NC(C)=O)cc1
inactive: [4] 100 % of control | [5] 99 % of control | [6] 100 % of control | [7] 96 % of control | [13] 103 % of control | [8] 96 % of control

CC1(C)CC(OP(=O)(OC2CC(C)(C)N(O)C(C)(C)C2)OC2CC(C)(C)N(O)C(C)(C)C2)CC(C)(C)N1O
inactive: dose: 50.0 mg/kg/injection, schedule: Q01DX001 (ip), vehicle: water 104 % of control | dose: 100.0 mg/kg/injection, schedule: Q01DX001 (ip), vehicle: water 94 % of control and 97 % of control | dose: 200.0 mg/kg/injection, schedule: Q01DX001 (ip), vehicle: water 103 % of control | dose: 400.0 mg/kg/injection, schedule: Q01DX001 (ip), vehicle: water 113 % of control

CCOC(=O)C(CBr)CBr
inactive: dose: 100.0 mg/kg/injection, schedule: Q04DX002 (ip), vehicle: saline 91 % of control | dose: 200.0 mg/kg/injection, schedule: Q04DX002 (ip), vehicle: saline 88 % of control | dose: 400.0 mg/kg/injection, schedule: Q04DX002 (ip), vehicle: saline 122 % of control

Oc1cc2c3c(c1)-c1c(ccc(O)c1O)CC3NCC2 (configuration not stated)
inactive: dose: 6.25 mg/kg/injection, schedule: Q04DX003 (ip), vehicle: DMSO 100 % of control | dose: 12.5 mg/kg/injection, schedule: Q04DX003 (ip), vehicle: DMSO 100 % of control | dose: 25.0 mg/kg/injection, schedule: Q04DX003 (ip), vehicle: DMSO 93 % of control | dose: 50.0 mg/kg/injection, schedule: Q04DX003 (ip), vehicle: DMSO 88 % of control

COC(=O)C(Cc1[nH]c(N=Nc2ccc(Br)cc2)nc1N=Nc1ccc(Br)cc1)NC(=O)c1ccccc1 (configuration not stated)
inactive: dose: 100.0 mg/kg/injection, schedule: Q01DX001 (ip), vehicle: saline with Tween-80 86 % of control | dose: 200.0 mg/kg/injection, schedule: Q01DX001 (ip), vehicle: saline with Tween-80 93 % of control | dose: 400.0 mg/kg/injection, schedule: Q01DX001 (ip), vehicle: saline with Tween-80 90 % of control

CCN1CCCC(Nc2cc(C)nc(Nc3nc4cc(Cl)c(Cl)cc4[nH]3)n2)C1 (configuration not stated)
inactive: [14] 94 % of control | [1] 98 % of control

O=C(CCl)NCC1(c2ccc(Cl)cc2)SC(CNC(=O)CCl)(c2ccc(Cl)cc2)S1 (configuration not stated)
inactive: [10] 97 % of control | [11] 92 % of control | [12] 104 % of control

COc1cc(C=O)ccc1OC(=O)Nc1cccc(Cl)c1C
inactive: [4] 97 % of control | [6] 97 % of control | [13] 103 % of control

C1CCC2C(C1)CCC1C3CCCC3OCN21 (configuration not stated)
inactive: dose: 100.0 mg/kg/injection, schedule: Q04DX002 (ip), vehicle: saline with Tween-80 96 % of control | dose: 200.0 mg/kg/injection, schedule: Q04DX002 (ip), vehicle: saline with Tween-80 96 % of control | dose: 400.0 mg/kg/injection, schedule: Q04DX002 (ip), vehicle: saline with Tween-80 93 % of control

COC1=C(OC)C(=O)C(Sc2ccc3ccccc3c2)=CC1=O
inactive: dose: 6.25 mg/kg/injection, schedule: Q01DX009 (ip), vehicle: saline with Tween-80 100 % of control | dose: 12.5 mg/kg/injection, schedule: Q01DX009 (ip), vehicle: saline with Tween-80 94 % of control | [14] 100 % of control | [15] 96 % of control | [10] 94 % of control

Cc1sc(Cc2ccccc2)nc1-c1ccc(N=Cc2ccc(N(CCOS(C)(=O)=O)CCOS(C)(=O)=O)cc2)cc1
inactive: [16] 113 % of control | [17] 123 % of control | dose: 100.0 mg/kg/injection, schedule: Q04DX003 (ip), vehicle: saline with Tween-80 107 % of control and 114 % of control

O=C(O)c1ccccc1[N+](=O)[O-].[Ag]
inactive: [18] 90 % of control | [16] 107 % of control | [17] 91 % of control

CC(=O)C(C(C)=O)C(=O)c1ccc2ccccc2c1
inactive: dose: 222.0 mg/kg/injection, schedule: Q01DX Z (ip), vehicle: methylcellulose (MC) 107 % of control | dose: 333.0 mg/kg/injection, schedule: Q01DX Z (ip), vehicle: methylcellulose (MC) 94 % of control | dose: 500.0 mg/kg/injection, schedule: Q01DX Z (ip), vehicle: methylcellulose (MC) 96 % of control

O=C(O)/C(=C(/Cc1ccccc1)C(=O)c1ccccc1)c1ccccc1
inactive: [15] 98 % of control | [10] 88 % of control | [11] 91 % of control

CC(=O)[O][Sn]([CH2]c1ccccc1)([CH2]c1ccccc1)[CH2]c1ccccc1
inactive: dose: 0.5 mg/kg/injection, schedule: Q04DX003 (ip), vehicle: saline with Tween-80 97 % of control | dose: 1.0 mg/kg/injection, schedule: Q04DX003 (ip), vehicle: saline with Tween-80 96 % of control | dose: 3.0 mg/kg/injection, schedule: Q04DX003 (ip), vehicle: saline with Tween-80 99 % of control | [19] 97 % of control | [14] 100 % of control

ClCc1c2ccccc2cc2ccccc12
inactive: dose: 6.25 mg/kg/injection, schedule: Q04DX002 (ip), vehicle: saline with Tween-80 101 % of control | [9] 101 % of control

CCCC/C(I)=C\S(=O)(=O)c1ccc(C)cc1
inactive: [1] 113 % of control | [2] 86 % of control | [3] 96 % of control

C[N+]1(Cc2c[nH]c3ccsc23)CCCCC1
inactive: dose: 3.0 mg/kg/injection, schedule: Q01DX009 (ip), vehicle: saline with Tween-80 99 % of control | dose: 6.0 mg/kg/injection, schedule: Q01DX009 (ip), vehicle: saline with Tween-80 97 % of control | [19] 90 % of control | [18] 101 % of control

From PubChem BioAssay AID248 (DTP/NCI, 2004)
